Results as given in US9630965B2, “Fused amino pyridine as HSP90 inhibitors” (Curis, Inc., priority 2007, dated 2017).

Key:
[1] = molecular target: T1, HSP90 (Homo sapiens (Human), UniProt P07900); experiment: Hsp90 chaperone assay (refolding of heat-denatured luciferase); assay type: biochemical
Protocol: (a) An In Vitro Assay which Determines the Ability of a Test Compound to Inhibit Hsp90 Chaperone Activity.
The Hsp90 chaperone assay was performed to measure the ability of HSP90 protein to refold the heat-denatured luciferase protein. HSP90 was first incubated with different concentrations of test compounds in denaturation buffer (25 mM Tris, pH7.5, 8 mM MgSO4, 0.01% bovine gamma globulin and 10% glycerol) at room temperature for 30 min. Luciferase protein was added to denaturation mix and incubated at 50° C. for 8 min. The final concentration of HSP90 and luciferase in denaturation mixture were 0.375 μM and 0.125 μM respectively. A 5 μl sample of the denatured mix was diluted into 25 μl of renaturation buffer (25 mM Tris, pH7.5, 8 mM MgSO4, 0.01% bovine gamma globulin and 10% glycerol, 0.5 mM ATP, 2 mM DTT, 5 mM KCl, 0.3 μM HSP70 and 0.15 μM HSP40). The renaturation reaction was incubated at room temperature for 150 min, followed by dilution of 10 μl of the renatured sample into 90 μl of luciferin reagent (Luclite, PerkinElmer Life Science). The mixture was incubated at dark for 5 min before reading the luminescence signal on a TopCount plate reader (PerkinElmer Life Science).

[2] = molecular target: T1, HSP90; experiment: HSP90 competition binding (fluorescence polarization) assay with FITC labeled GM; conditions: 24 hours of incubation at 4° C.
Description: (b) HSP90 Competition Binding (Fluorescence Polarization) Assay.
A fluorescein isothiocyanate (FITC) labeled GM was purchase from InvivoGen (ant-fgl-1). The interaction between HSP90 and labeled GM forms the basis for the fluorescence polarization assay. A free and fast-tumbling FITC labeled GM emits random light with respect to the plane of polarization plane of excited light, resulting in a lower polarization degree (mP) value. When GM is bound to HSP90, the complex tumble slower and the emitted light is polarized, resulting in a higher mP value. […] The assay buffer contained 20 mM HEPES (pH 7.3), 50 mM KCl, 1 mM DTT, 50 mM MgCl2, 20 mM Na2MoO4, 0.01% NP40 with 0.1 mg/ml bovine gamma-globulin.

Row | SMILES | IC50 [1] [µM] | IC50 [2] [µM]
1 | C#CCCCn1c(Sc2cc3c(cc2Cl)OCO3)nc2c(N)nccc21 [Compound 2, 2-(6-chlorobenzo[d][1,3]dioxol-5-ylthio)-1-(pent-4-ynyl)-1H-imidazo[4,5-c]pyridin-4-amine] | 0.1 to 1 | 0.1 to 1
2 | C#CCCCn1c(Sc2cc(OC)ccc2Br)nc2c(N)nccc21 [Compound 13, 2-(2-bromo-5-methoxyphenylthio)-1-(pent-4-ynyl)-1H-imidazo[4,5-c]pyridin-4-amine] | 1 to 10 | 1 to 10
3 | C#CCCCn1c(Sc2cc3c(cc2I)OCO3)nc2c(N)nccc21 [Compound 3, 2-(6-iodobenzo[d][1,3]dioxol-5-ylthio)-1-(pent-4-ynyl)-1H-imidazo[4,5-c]pyridin-4-amine] | 0.1 to 1 | < 0.1
4 | C#CCCCn1c(Sc2cc(OC)ccc2I)nc2c(N)nccc21 [Compound 12, 2-(2-iodo-5-methoxyphenylthio)-1-(pent-4-ynyl)-1H-imidazo[4,5-c]pyridin-4-amine] | 1 to 10 | 0.1 to 1
5 | C#CCCCn1c(Sc2cc(OC)ccc2C(C)=O)nc2c(N)nccc21 [Compound 19, 1-(2-(4-amino-1-(pent-4-ynyl)-1H-imidazo[4,5-c]pyridin-2-ylthio)-4-methoxyphenyl)ethanone] | 1 to 10 | 1 to 10
6 | CC(C)(C)NCCCn1c(Sc2cc3c(cc2I)OCO3)nc2c(N)nccc21 [Compound 58, 1-(3-(tert-butylamino)propyl)-2-(6-iodobenzo[d][1,3]dioxol-5-ylthio)-1H-imidazo[4,5-c]pyridin-4-amine] |  | 0.1 to 1
7 | NC(=O)CCCn1c(Sc2cc3c(cc2I)OCO3)nc2c(N)nccc21 [Compound 66, 4-(4-amino-2-(6-iodobenzo[d][1,3]dioxol-5-ylthio)-1H-imidazo[4,5-c]pyridin-1-yl)butanamide] |  | 0.1 to 1
8 | CC(C)NCCCn1c(Sc2cc3c(cc2I)OCO3)nc2c(N)nccc21 [Compound 52, 2-(6-iodobenzo[d][1,3]dioxol-5-ylthio)-1-(3-(isopropylamino)propyl)-1H-imidazo[4,5-c]pyridin-4-amine] |  | 0.1 to 1
9 | C#CCCCn1c(Sc2cccc(OC)c2)nc2c(N)nccc21 [Compound 11, 2-(3-methoxyphenylthio)-1-(pent-4-ynyl)-1H-imidazo[4,5-c]pyridin-4-amine] | ≥ 10 | > 10
10 | CC(C)OCCn1c(Sc2cc3c(cc2I)OCO3)nc2c(N)nccc21 [Compound 62, 2-(6-iodobenzo[d][1,3]dioxol-5-ylthio)-1-(2-isopropoxyethyl)-1H-imidazo[4,5-c]pyridin-4-amine] |  | 0.1 to 1
11 | C#CCCCn1c(Sc2cc(OC)ccc2C#N)nc2c(N)nccc21 [Compound 18, 2-(4-amino-1-(pent-4-ynyl)-1H-imidazo[4,5-c]pyridin-2-ylthio)-4-methoxybenzonitrile] |  | 1 to 10
12 | CC(=O)NCCCCn1c(Sc2cc3c(cc2I)OCO3)nc2c(N)nccc21 [Compound 76, N-(4-(4-amino-2-(6-iodobenzo[d][1,3]dioxol-5-ylthio)-1H-imidazo[4,5-c]pyridin-1-yl)butyl)acetamide] |  | 0.1 to 1
13 | CC(=O)NCCn1c(Sc2cc3c(cc2I)OCO3)nc2c(N)nccc21 [Compound 72, N-(2-(4-amino-2-(6-iodobenzo[d][1,3]dioxol-5-ylthio)-1H-imidazo[4,5-c]pyridin-1-yl)ethyl)acetamide] |  | 0.1 to 1
14 | C#CCCCn1c(Sc2ccc3c(c2)CCO3)nc2c(N)nccc21 [Compound 9, 2-(2,3-dihydrobenzofuran-5-ylthio)-1-(pent-4-ynyl)-1H-imidazo[4,5-c]pyridin-4-amine] |  | > 10
15 | C#CCCCn1c(Sc2cc(OC)ccc2[N+](=O)[O-])nc2c(N)nccc21 [Compound 17, 2-(5-methoxy-2-nitrophenylthio)-1-(pent-4-ynyl)-1H-imidazo[4,5-c]pyridin-4-amine] | ≥ 10 | > 10
16 | N#CCCCCn1c(Sc2cc3c(cc2Br)OCO3)nc2c(N)nccc21 [Compound 29, 5-(4-amino-2-(6-bromobenzo[d][1,3]dioxol-5-ylthio)-1H-imidazo[4,5-c]pyridin-1-yl)pentanenitrile] |  | 1 to 10
17 | CC(C)NCCCn1c(Sc2cc3c(cc2Br)OCO3)nc2c(N)nccc21 [Compound 51, 2-(6-bromobenzo[d][1,3]dioxol-5-ylthio)-1-(3-(isopropylamino)propyl)-1H-imidazo[4,5-c]pyridin-4-amine] |  | 1 to 10
18 | C#CCCCn1c(Sc2cc3c(cc2I)OCCO3)nc2c(N)nccc21 [Compound 7, 2-(7-iodo-2,3-dihydrobenzo[b][1,4]dioxin-6-ylthio)-1-(pent-4-ynyl)-1H-imidazo[4,5-c]pyridin-4-amine] |  | 0.1 to 1
19 | COc1ccc(I)c(Sc2nc3c(N)nccc3n2CCCC#N)c1 [Compound 26, 4-(4-amino-2-(2-iodo-5-methoxyphenylthio)-1H-imidazo[4,5-c]pyridin-1-yl)butanenitrile] |  | 1 to 10
20 | CN(C)Cc1cc2c(cc1Sc1nc3c(N)nccc3n1CCNCC(C)(C)C)OCO2 [Compound 115, 2-(6-((dimethylamino)methyl)benzo[d][1,3]dioxol-5-ylthio)-1-(2-(neopentylamino)ethyl)-1H-imidazo[4,5-c]pyridin-4-amine] |  | > 10
21 | C#CCCCn1c(Sc2cc(OC)ccc2Cl)nc2c(N)nccc21 [Compound 14, 2-(2-chloro-5-methoxyphenylthio)-1-(pent-4-ynyl)-1H-imidazo[4,5-c]pyridin-4-amine] | 1 to 10 | 1 to 10
22 | CC(C)OCCn1c(Sc2cc3c(cc2Br)OCO3)nc2c(N)nccc21 [Compound 61, 2-(6-bromobenzo[d][1,3]dioxol-5-ylthio)-1-(2-isopropoxyethyl)-1H-imidazo[4,5-c]pyridin-4-amine] |  | 0.1 to 1
23 | C#CCCCCn1c(Sc2cc3c(cc2Br)OCO3)nc2c(N)nccc21 [Compound 24, 2-(6-bromobenzo[d][1,3]dioxol-5-ylthio)-1-(hex-5-ynyl)-1H-imidazo[4,5-c]pyridin-4-amine] |  | 1 to 10
